Earlier results on one compound are cited in patent publication US6663901B1, “Pellets having a core coated with an antifungal and a polymer” (Janssen Pharmaceutical N.V., priority 1998, dated 2003).

Molecules are shown by their SMILES.

In the case of `CCC(C)n1ncn(-c2ccc(N3CCN(c4ccc(OCC5COC(Cn6cncn6)(c6ccc(Cl)cc6Cl)O5)cc4)CC3)cc2)c1=O` (racemic) [itraconazole, (±)-cis-4-[4-[4-[4-[[2-(2,4-dichlorophenyl)-2-(1H-1,2,4-triazol-1-methyl)-1,3-dioxolan-4-yl]methoxy]phenyl]-1-piperazinyl]phenyl]-2,4-dihydro-2-(1-methylpropyl)-3H-1,2,4-triazol-3-one], the solubility in water result is “only very sparingly soluble”.
